Reference: patent US9453004B2, “Formylated xanthocillin analogues as neuroprotective agents” (NEURON BIOPHARMA, S.A., priority 2012, dated 2016)

Key:
[1] = TEAC in vitro antioxidant capacity assay; type: biochemical
From the text: Based on the preceding results, the inventors decided to evaluate in vitro antioxidant capacity of the extract, for which the TEAC assay ([…]) was used. This method is based on the formation of the ferryl-myoglobin radical produced by reacting metmyoglobin with hydrogen peroxide, followed by the oxidation of the ABTS [2,2′-azino-bis(3-ethylbenzthiazoline-6-sulfonic acid] reagent by ferryl-myoglobin, which produces the radical cation ABTS*+, which can be colorimetrically determined. In this assay, the compounds with antioxidant capacity suppress the production of the radical in a concentration-dependent manner. A standard curve with increasing concentrations of trolox (6-hydroxy-2,5,7,8-tetramethylchroman-2-carboxylic acid, hydrosoluble vitamin E analogue) is used to quantify antioxidant capacity, such that the results are indicated as a measurement of trolox equivalents (TE).
Based on the preceding results, the researchers decided to analyze the in vitro antioxidant capacity of compounds NPS0155 and NPS0156 by means of the TEAC assay, described in Example 2. A standard curve with increasing concentrations of trolox (hydrosoluble vitamin E analogue) was used to quantify antioxidant capacity, such that the results are indicated as a measurement of trolox equivalents (TE).

[2] = system: SK-N-MC human neuroblastoma culture cells; experiment: XXO-induced cell death in real time (RTCA cell index); type: cell-based; conditions: 20 hours post-treatment
Experimental: These cells, not exceeding 15 passages, were seeded on E-plate 16 specific for a real time assay with the RTCA system (Real-Time Cell Analyzer, […], Roche) with a cell density of 5×10^4 cells/well. After 24 hours of cell incubation at 37° C. and 5% CO2, the cell treatments for the control conditions (culture medium); XXO (10 μM xanthine/60 mU/mL xanthine oxidase); XXO plus […] or […] at 10, 40, 100, 400, 1000 or 4000 ng/ml, were performed. The cells were incubated (at 37° C. and 5% CO2) with these treatments for 72 hours, was monitored every 10 minutes. The values that are obtained are arbitrary units indicated by the cell index, calculated from the impedance data, which is a electrical parameter that establishes the relationship between the voltage and current intensity of the adhered cells which is used as a measurement of cell viability. […] The assay was performed following the same method as the one described in Example 6, testing the analogues at 40, 100, 400 or 1000 ng/ml in the presence of XXO. The cells were incubated (at 37° C. and 5% CO2) with these treatments for 72 hours, and was monitored every 10 minutes. The values that are obtained are arbitrary units indicated by cell index, calculated from the impedance data and used as a measurement of cell viability.

[3] = system: SK-N-MC cells expressing wild-type APP (APPwt); experiment: Camptothecin-induced apoptosis (DNA fragmentation, flow cytometry) in APPwt cells; type: cell-based, human; conditions: pre-treatment 24 hours at 4 and 10 μg/ml, then 50 μM CPT for 6 hours
Experimental: (§1) Based on the preceding results, the researchers decided to analyze the antiapoptotic effect of compounds NPS0155 and NPS0156. The assays were performed on two SK-N-MC human neuroblastoma culture cell lines stably transfected with constructs expressing the amyloid precursor protein (APP) gene encoding for the isoform primarily expressed in the brain, containing 695 amino acids cloned into the expression vector pcDNA3.1 (Invitrogen). One of the lines expresses the wild-type APP (APPwt) gene and the other line expresses the gene APP with the Swedish mutation (APPswe) which is a double mutation in exon 16 of the gene and produces a G to T transversion yielding the change of amino acid Lys595Asn and another A to C transversion causing the Met596Leu change, said mutation being related to the senile or hereditary forms of Alzheimer's disease. […] To determine the effect of compounds NPS0155 and NPS0156 on apoptosis (programmed cell death), DNA fragmentation was analyzed by means of flow cytometry, produced by treatment with camptothecin (CPT) inhibiting the topoisomerase I enzyme, which impedes DNA duplication and triggers apoptotic cell death. […] They were maintained at 4° C. for 18 hours and after this time, they were analyzed by flow cytometry, measuring propidium iodide fluorescence as DNA content distribution.

[4] = system: SK-N-MC cells expressing APP with the Swedish mutation (APPswe); experiment: Camptothecin-induced apoptosis (DNA fragmentation, flow cytometry) in APPswe cells; type: cell-based, human; conditions: pre-treatment 24 hours at 4 and 10 μg/ml, then 50 μM CPT for 6 hours
Experimental: as §1

[5] = system: SK-N-MC human neuroblastoma culture cells; experiment: ROS measurement (H2DCFDA, normalized by LDH) in cells treated with XXO; type: cell-based
Experimental: Based on the preceding results, the inventors decided to evaluate the antioxidant capacity of the analogues in a cell model. The ROS measurement assay was performed on SK-N-MC human neuroblastoma culture cells, maintained as detailed in Example 2, subjected to aggression with xanthine/xanthine oxidase (XXO). The ROS measurement is taken by means of adding a permeable non-fluorescent probe in live cells (2′,7′-dichlorodihydrofluorescein diacetate, H2DCFDA; Biotium) which is oxidized by the action of ROS, generating 2′,7′-dichlorofluorescein (DCF) which can be detected in a fluorometer at 485 nm of excitation and 538 nm of emission. The fluorescence results were normalized by cell viability, measured by means of lactate dehydrogenase (LDH) activity, using the Roche Cytotoxicity Detection Kit (LDH). The results obtained with the analogues on the production of ROS are shown in FIG. 29 as the percentage of ROS corrected by LDH with respect to treatment with XXO of each analogue in a dose-response curve. A known ROS reduction control compound (C+) was used. * indicates the significant difference with respect to treatment with XXO according to the Student's t test (p<0.05).

in vitro = conditions: PAMPA; for Papp at 4 h / percentage of permeability: pig; for percentage of permeability: 4 h
Experimental: A mixture of lipids derived from pig brain, with a phospholipid composition very similar to the composition forming the human BBB, and referred to as PBL (Porcine Polar Brain Lipid, Avanti Polar Lipids Inc) which is prepared in microtiter plates with a MAIPNTR10 filter (Millipore), with a PVDF membrane and pore size of […], was used to mimic the blood-brain barrier. […] The percentage of barrier crossing and the effective permeability (Pe) were calculated based on the absorbance data obtained. The following formula was applied to calculate the Pe: […]

[6] = system: SK-N-MC human neuroblastoma culture cells; experiment: Camptothecin-induced apoptosis (DNA fragmentation, flow cytometry) in SK-N-MC cells; type: cell-based; conditions: CPT
Experimental: Based on the preceding results, the researchers decided to analyze the antiapoptotic effect of compounds NPS0155 and NPS0156. The assays were performed on two SK-N-MC human neuroblastoma culture cell lines stably transfected with constructs expressing the amyloid precursor protein (APP) gene encoding for the isoform primarily expressed in the brain, containing 695 amino acids cloned into the expression vector pcDNA3.1 (Invitrogen). One of the lines expresses the wild-type APP (APPwt) gene and the other line expresses the gene APP with the Swedish mutation (APPswe) which is a double mutation in exon 16 of the gene and produces a G to T transversion yielding the change of amino acid Lys595Asn and another A to C transversion causing the Met596Leu change, said mutation being related to the senile or hereditary forms of Alzheimer's disease. The cells were maintained as the parent cells SK-N-MC, as detailed in Example 2, using geneticin at 400 μg/ml as a selection antibiotic. To determine the effect of compounds NPS0155 and NPS0156 on apoptosis (programmed cell death), DNA fragmentation was analyzed by means of flow cytometry, produced by treatment with camptothecin (CPT) inhibiting the topoisomerase I enzyme, which impedes DNA duplication and triggers apoptotic cell death. The two cell lines, not exceeding 10 passages, were seeded on 12-well microtite plate treated for adherent cells with a cell density of 4×10^5 cells/well. After 24 hours of cell incubation at 37° C. and 5% CO2, the pre-treatment of the cells with 4 and 10 μg/mL of NPS0155 or of NPS0156 for 24 hours was performed; they were subsequently treated with 50 μM CPT for 6 hours. After treatment, the cells were collected together with their culture medium and centrifuged at 300×g for 5 minutes. The medium was removed, the cells were washed with PBS solution and were fixed for 2 minutes with 500 μL of 70% ethanol at −20° C. Once they were fixed, they were centrifuged at 400×g for 5 minutes, washed with PBS and labeled with 0.05 mg/mL of propidium iodide, diluted in cycle buffer (0.1% citrate sodium, 0.3% Nonidet P-40 and 0.02 mg/mL RNAse), and were incubated for 1 hour at 37° C. They were maintained at 4° C. for 18 hours and after this time, they were analyzed by flow cytometry, measuring propidium iodide fluorescence as DNA content distribution.
Continuing with the study, the researchers decided to analyze the antiapoptotic effect of the synthesized analogues by analyzing cellular DNA fragmentation by means of flow cytometry. The cellular fragmentation measurement assay was performed on SK-N-MC human neuroblastoma culture cells, maintained as detailed in Example 2, and subjected to an aggression with camptothecin (CPT), following the same approach as the one described in Example 8. […]

[7] = ABTS*+ method, in vitro antioxidant capacity for lipophilic compounds; type: biochemical; conditions: for 0.1 μg of each compound
From the text: Based on the preceding results, the inventors decided to evaluate the in vitro antioxidant capacity of the synthesized analogues, using an antioxidant capacity measurement assay valid for lipophilic compounds, according to the ABTS*^+ method (Samaniego et al. 2007. Analytica Chimica Acta 593: 103-107). This method is based on forming the ABTS*^+ radical cation by means of oxidation with ammonium persulfate of the ABTS reagent [2,2′-azino-bis(3-ethylbenzothiazoline-6-sulfonic acid], which can be colorimetrically determined. In this assay, the compounds with antioxidant capacity suppress the oxidation of the radical in a concentration-dependent manner. A standard curve with increasing concentrations of trolox (hydrosoluble vitamin E analogue) is used to quantify antioxidant capacity, such that the results are indicated as a measurement of trolox equivalents (TE). The results obtained for analogues NPS0158 and NPS0159 are 174±13 μM TE and 165±44 μM TE, respectively, for 0.1 μg of each compound, so they show high in vitro antioxidant capacity.

BBB permeability (conclusion) (in vitro) | Papp at 4 h (in vitro) | percentage of permeability (in vitro) | SMILES | antioxidant capacity, trolox equivalents (TE) [1] | maximum protection against death caused by XXO ([2]; at 100 ng/ml) | protection against apoptosis caused by CPT [3] | protection against apoptosis caused by CPT [4] | maximum ROS reduction (ROS corrected by LDH, with respect to XXO) ([5]; at 100 ng/ml) | maximum protection against death caused by XXO ([2]; at 1000 ng/ml) | maximum protection against apoptosis ([6]; at 10 μg/ml) | antioxidant capacity, trolox equivalents (TE) [7] | also measured
– | – | – | O=CNC(=C\c1ccc(O)cc1)/C(=C/c1ccc(O)c(O)c1)NC=O [NPS0155, (1Z,3Z)-1-(3,4-dihydroxyphenyl)-4-(4-hydroxyphenyl)-2,3-diformamido-1,3-butadiene] | 81±19 μM TE/μg of compound | 27% | Protection by NPS0155 was observed at the two tested doses | Protection by NPS0155 was observed at the two tested doses | – | – | – | – | –
– | – | – | O=CNC(=C\c1ccc(O)cc1)/C(=C/c1ccc(O)cc1)NC=O [NPS0156, (1Z,3Z)-1,4-Di(4-hydroxyphenyl)-2,3-diformamido-1,3-butadiene] | 104±29 μM TE/μg of compound | 69% | Protection by NPS0156 was observed at the two tested doses | Protection by NPS0156 was observed at the two tested doses | – | – | – | – | –
moderate | 5.19 ×10⁻⁶ cm/s | 13% | Cc1ccc(/C=C(NC=O)/C(=C/c2ccc(C)cc2)NC=O)cc1 [NPS0158, (1Z,2Z)-2-(formylamino)-1-(4-methylbenzylidene)-3-(4-methylphenyl)prop-2-enylformamide] | – | – | – | – | 34% | 27% | 28% | 174±13 μM TE | –
– | – | – | O=CNC(=C\c1ccc2c(c1)OCO2)/C(=C/c1ccc2c(c1)OCO2)NC=O [NPS0159, (1Z,2Z)-3-(1,3-benzodioxol-5-yl)-1-(1,3-benzodioxol-5-ylmethylen)-2-(formylamino)prop-2-enylformamide] | – | – | – | – | 27% | 35% | 23% | 165±44 μM TE | –
– | – | – | CCOc1ccc(/C=C(NC=O)/C(=C/c2ccc(OCC)cc2)NC=O)cc1 [NPS0160, (1Z,2Z)-2-(formylamino)-1-(4-ethoxybenzylidene)-3-(4-ethoxyphenyl)prop-2-enylformamide] | – | 23% | – | – | 31% | – | – | – | maximum protection against apoptosis ([6]; at 1 μg/ml): 30%
high | 14.7 ×10⁻⁶ cm/s | 29% | Cc1ccc(/C=C(NC=O)/C(=C/c2ccc(C)c(C)c2)NC=O)cc1C [NPS0161, (1Z,2Z)-1-(3,4-dimethylbenzylidene)-3-(3,4-dimethylphenyl)-2-(formylamino)-prop-2-enylformamide] | – | 26% | – | – | – | – | – | – | maximum ROS reduction (ROS corrected by LDH, with respect to XXO) ([5]; at 400 ng/ml): 45%; maximum protection against apoptosis ([6]; at 0.1 μg/ml): 35%
